Measurements from patent US20080288176A1 (priority 2005, published 2008).

Tests used:
[1] = Hydrolysis in human liver microsomes; format: in vitro ADME; conditions: for liver microsomal activity: model input
Excerpt: The time course of the prodrug, its active metabolites and nitric oxide release can be simulated using a series of in vitro and in silico inputs. The stability of each component in the gastrointestinal lumen is estimated using data collected from artificial gastric and intestinal juice. Intestinal metabolism is estimated using intestinal microsomes and absorption rate is estimated using permeability data collected from a cell monolayer such as Caco-2. Hepatic elimination is estimated using liver microsomes and stability in plasma is calculated using degradation of each component in the media. Plasma protein binding can either be measured using a standardized in vitro method or it can be estimated using an in silico method. The distribution of each component in various parts of the body is estimated using an in silico method. The rate of nitric oxide release is estimated using an in vitro endothelial cell model. The time course of prodrug, its active metabolites and nitric oxide can be simulated in human and animal using this physiologically based pharmacokinetic/pharmacodynamic model provided that the corresponding in vitro and in silico data are used as inputs.
The selection of in vitro tests is designed to provide parameters for the above mentioned model. The use of an inappropriate test would result in wrong predictions.
(§1) Representative in vitro tests or in silico estimates include: (a) pKa estimation or measurement; (b) Log P measurement or in silico estimation; (c) Solubility in various physiological fluids; (d) Permeability. Caco-2 and/or NOVOKIN's proprietary animal and human cell lines can be used to obtain this parameter; (e) Metabolic rate in the intestine and liver. Human or animal intestinal microsomes, S9 fraction, and cytosol can be used for this purpose. Human or animal hepatocytes, liver microsomes, S9 fraction, and cytosol can also be used; (f) Hydrolysis in human or animal plasma; (g) Serum or plasma protein binding. It can be measured in vitro or estimated in silico; (h) The rate of NO release; (i) Existing pharmacokinetic and pharmacodynamic data of NSAID or a biocompatible agent; (j) Existing NO release rate of known diazeniumdiolate if applicable; (k) Stability in gastric and intestinal environment; and (l) In silico volume of distribution estimation.
The simulation begins with no material in all compartments except for the initial bolus in one compartment (typically the stomach compartment). The simulation then estimates the changing distribution of the material with time.

male Wistar rats = assay: Urine N-acetylglucosaminidase to creatinine ratio (distal tubule toxicity); format: in vivo, rat; conditions: oral gavage, urine collected for 6 hours
Method: (§2) Table 1 is a summary of the protocol for a study which was conducted in male Wistar rats weighing 275-300 grams. The animals were allowed to acclimatize for at least five days prior to the commencement of the study. The study protocol was approved by the local animal ethics committee.
All test animals, housed in metabolic cages, had urine collected over wet ice for 6 hours after dosing. Aliquots of the urine from each animal were collected to determine creatinine concentration. The remainder of the urine was centrifuged at 1000 g for 10 minutes. The supernatant was collected and mixed with analytical grade ethylene glycol at a rate of 0.4 mL ethylene glycol per 1 mL urine supernatant. The ethylene glycol/urine mixture was stored at −80° C. until analysis.

Hydrolysis in rat plasma = format: in vitro ADME; conditions: Rat
Excerpt: (§3) The physiologically based pharmacokinetic/pharmacodynamic model of the present invention contains a series of compartments that describe the time course of a nonsteroidal anti-inflammatory prodrug, its active metabolites and nitric oxide release in intestine, liver, kidneys, blood/plasma and heart after prodrug administration. The time course of the prodrug, its active metabolites and nitric oxide release can be simulated using a series of in vitro and in silico inputs. The stability of each component in the gastrointestinal lumen is estimated using data collected from artificial gastric and intestinal juice. Intestinal metabolism is estimated using intestinal microsomes and absorption rate is estimated using permeability data collected from a cell monolayer such as Caco-2. Hepatic elimination is estimated using liver microsomes and stability in plasma is calculated using degradation of each component in the media. Plasma protein binding can either be measured using a standardized in vitro method or it can be estimated using an in silico method. The distribution of each component in various parts of the body is estimated using an in silico method. The rate of nitric oxide release is estimated using an in vitro endothelial cell model. The time course of prodrug, its active metabolites and nitric oxide can be simulated in human and animal using this physiologically based pharmacokinetic/pharmacodynamic model provided that the corresponding in vitro and in silico data are used as inputs.
as §1

[2] = Stability in intestinal lumen (decay rate); format: in vitro ADME
Excerpt: as §3, §1

[3] = Serum nitrate concentration (NO release) after oral dosing; format: in vivo, rat; conditions: male Wistar rats, oral gavage, at 6 hours
Method: as §2
The animals were fasted overnight prior to test substance administration. The test substance was administered orally by gavage on the morning of the study day. All test animals had blood collected during the test period in both EDTA (ethylenediaminetetraacetic acid) tubes and SST (Serum Separator Tubes) at 1, 3 and 6 hours after dosing. Blood was collected into EDTA tubes only at 1 and 3 hours by tail tip amputation. Volume of blood collected was between 0.5 and 1 mL at each of these collections. The final collection was by puncture of the abdominal vena cava under isoflurane general anesthesia. Final blood collection was targeted as follows: 1st EDTA #1—1.5 mL; 2nd SST—1.5 mL; 3rd EDTA #2—as much as possible.
EDTA samples were centrifuged, and the plasma portion was collected and frozen at −80° C. SST samples were incubated at 37° C. for approximately 45 minutes, centrifuged, and the serum was collected and frozen at −80° C. until analysis.

[4] = Hydrolysis in rat liver microsomes; format: in vitro ADME; conditions: for liver microsomal activity: model input
Excerpt: as §3, §1
(§4) Whenever in vitro estimate is attainable, the in vitro results will be used, for example, plasma protein binding. Methods reported by Bowalgaha & Miners (2001), Martignoni et al. (2006), Tong et al. (2001) and Thulesen et al. (1999) were used for in vitro and in vivo scale-up for clearance in the intestine, absorption rate constant and hepatic clearance. The simulation begins with no material in all compartments except for the initial bolus in one compartment (typically the stomach compartment). The simulation then estimates the changing distribution of the material with time.

[5] = Hydrolysis in rat intestinal microsomes; format: in vitro ADME; conditions: for intestinal microsomal activity: model input
Excerpt: as §3, §1, §4

| Compound | liver molar percent conversion to Naproxen [1] [%] | liver microsomal activity [1] [mL/min/organ] | Urine NAG/Cr values, Mean (male Wistar rats) | plasma decay rate constant (Hydrolysis in rat plasma) [min⁻¹] | intestinal lumen decay rate constant ([2]; Human) [min⁻¹] | intestinal lumen decay rate constant ([2]; Rat) [min⁻¹] | Serum Nitrate Concentrations, Mean [3] | liver molar percent conversion to Naproxen [4] [%] | liver microsomal activity [4] [mL/min/organ] | intestinal molar percent conversion to Naproxen [5] [%] | intestinal microsomal activity [5] [mL/min/organ] |
| --- | --- | --- | --- | --- | --- | --- | --- | --- | --- | --- | --- |
| COc1ccc2cc(C(C)C(=O)OCON=[N+]([O-])N3CCCC3)ccc2c1 (stereo not shown) [PYRO-NO-NAP, pyrrolidino-diazeniumdiolate-naproxen] | 72 | 567000 | 21.515 | 1.4 | 0.025 | 0.025 | 389.000 | 40 | 1920 | 10 | 1 |
| COc1ccc2cc([C@H](C)C(=O)OCCCCO[N+](=O)[O-])ccc2c1 [AZD 3582] | – | 118566 | 27.439 | 1.0 | 0 | 0 | 460.667 | – | 1029 | – | 0.09 |
